Data reported in patent US10562890B2, “Cancer therapeutics” (UNIVERSITY OF VIRGINIA PATENT FOUNDATION, priority 2014, dated 2020).

Assays:
lung cancer cell lines = assay: MTT growth assay, several lung cancer cell lines; type: cell-based
Description: (§1) Activity of Al-10-104 was tested using several lung cancer cell lines and one immortalized, non-transformed lung cell line. […] Data for the squamous cell carcinoma of the lung cell line H520 and the immortalized normal lung epithelial cell line BEAS-2B are shown in FIG. 10.

[1] = Sedative effects and tolerability in mice after IP administration; type: in vivo; conditions: intraperitoneal (IP) injection
Excerpt: “NA” indicates not active. […] Reasoning that this effect depended on the ability of the compound to cross the blood brain barrier (BBB), compounds Al-12-126 and Al-14-91 have appended morpholine ring substituents to the 5 position of the pyridine ring to increase the polarity of the compounds and thereby limit BBB penetration.

H520 lung cancer cells = assay: MTT growth assay, H520 cells; type: cell-based; conditions: H520, 10 μM, 72 hrs
Description: as §1
(§2) H520 cells were cultured in RPMI 1640 medium, supplemented with fetal bovine serum (10% final concentration), Hepes (1%), and sodium priruvate (1%). The MTT assay used 4×10^5/ml cells. BEAS-2B cells were cultured in DMEM medium with fetal bovine serum (10% final concentration). The MTT assay for the BEAS-2B cell line was performed using 3.5×10^5/ml cells.
(§3) Al-4-88 had no effect on either cell line.

MCF10A-5E cells = assay: Multiacini formation in 3D culture of MCF10A-5E cells; type: cell-based; conditions: shRUNX1 or control cells, 3D culture 10-11 days, compared to carrier control or Al-4-88
Excerpt: CBFβ inhibitors altered acinar morphogenesis of the basal-like (triple negative) breast epithelial cells and blocked survival of basal-like breast cancer cells in 3D organotypic culture. To evaluate whether CBFβ inhibition would influence the multicellular organization of basal-like breast epithelia, 3D culture of MCF10A-5E cells was used. Knockdown of RUNX1 in these cells delayed proliferation arrest and promoted the formation of nonspherical acini, indicating a role for RUNX1 during morphogenesis.
The multiacini resulting from CBFβ inhibition were not radially symmetric, thereby arguing against a general defect in cell polarity or proliferation arrest. Instead, the inhibitors appeared to be initiating a nascent branching program that is reminiscent of when TGFβ-family signaling is impaired.
FIG. 9A: MCF10A-5E cells stably expressing shRUNX1 or shGFP control were grown in 3D culture for 10-11 days with the indicated compounds and imaged by Brightfield microscopy. The total number of multiacini per chamber was counted and scaled to the shGFP DMSO control. Data are shown as the mean±SEM of eight independent cultures.

11 leukemia cell lines = assay: Viability of a panel of 11 leukemia cell lines; type: cell-based; conditions: 48 hours of treatment
Excerpt: Compounds Al-4-88, Al-4-57, Al-10-47, Al-10-104, and Al-14-91 were screened against a panel of 11 leukemia cell lines with varying genotypes.
The viability is represented as the percent DAPI negative cells relative to DMSO control. Each symbol/color in the graphs of FIG. 4 represent an individual cell line. The symbol represents the mean of independent replicates and the error bars represent the SEM. The table indicates the morphology, type of leukemia, and known mutations for each of the 11 cell lines.

[2] = test system: OVCAR8 ovarian cancer cells; assay: CellTiter-Glo viability assay, OVCAR8; type: cell-based; conditions: Homo sapiens, OVCAR-8, OVCAR8, 72 hours
Description: OVCAR8 cells were grown in RPMI 1640 supplemented with 10% Fetal bovine serum and 1% antibiotics. OVCAR4 cells were grown in RPMI 1640 supplemented with 20% fetal bovine serum and 1% antibiotics. Cells growing at approximately 70% confluency were trypsinized and 2500 cells per well were re-plated in opaque bottomed 96-well plates.
24 hours after plating, chemical compounds diluted in DMSO were mixed with cell growth media and added to cells. Compounds mixed with media were made at 10× concentration. Cells treated with compounds were incubated for 72 hours in a humidified incubator at 37° C. supplemented with 5% CO2. Percentage of cells viable after 72 hours was determined by CellTitler-Glo according to the manufacturer's instructions. Data analysis was performed using GraphPad 5.0.
In the graph, the ordinate represents % inhibition and the abscissa represents the log value of the concentration of the compound.

[3] = test system: T-ALL cell lines Jurkat, HBP-ALL, Loucy, and KOPTK1; assay: Proliferation of T-ALL cell lines; type: cell-based, human
[4] = Aqueous solubility in 0.25% DMSO by NMR spectroscopy; type: physicochemical; conditions: aqueous, kinetic from dmso stock; 0.25% DMSO, NMR spectroscopy; read-out: aqueous solubility
Description: Al-10-104, Al-12-126, and Al-14-91 were all soluble at concentrations above 100 μM. […] As the Runt domain is highly conserved among all three RUNX family members, we would expect to see similar effects on binding to RUNX2 or RUNX3. Therefore, the action of the inhibitors will likely affect the activity of all three RUNX family members.

[5] = biological target: binding of CBFβ to RUNX1 in SEM cells (Homo sapiens (Human), UniProt Q13951); assay: Co-immunoprecipitation of CBFβ with RUNX1 in SEM cells; type: cell-based; conditions: 10 μM, 6 hours
Description: To test whether the wild-type CBFβ Inhibitors can disrupt the binding of CBFβ to RUNX1 in cells, co-immunoprecipitation experiments were performed in the SEM cell line. Co-immunoprecipitation assays of lysates from […] SEM cells were treated with Al-4-88^1, Al-10-47, Al-10-104, Al-12-126 and Al-14-91 at 10 μM for 6 hours. RUNX1-bound CBFβ protein levels and immunoprecipitated RUNX1 are shown on the top panel of FIG. 2A. Quantification of RUNX1 bound CBFβ is shown on the bottom graph.

[6] = test system: BEAS-2B normal lung cells; assay: MTT growth assay, BEAS-2B cells; type: cell-based; conditions: 10 μM, 72 hrs
Description: as §1, §2, §3

[7] = test system: primary T-ALL patient samples; assay: Apoptosis of primary T-ALL patient samples; type: cell-based, human
MLL-AF4 leukemia cells = assay: Cell death of MLL-AF4 leukemia cells; type: cell-based, human
T-ALL cell lines = assay: Apoptosis in T-ALL cell lines; type: cell-based, human

Chain of binding of CBFβ to RUNX1 in SEM cells (Q13951 whole entry): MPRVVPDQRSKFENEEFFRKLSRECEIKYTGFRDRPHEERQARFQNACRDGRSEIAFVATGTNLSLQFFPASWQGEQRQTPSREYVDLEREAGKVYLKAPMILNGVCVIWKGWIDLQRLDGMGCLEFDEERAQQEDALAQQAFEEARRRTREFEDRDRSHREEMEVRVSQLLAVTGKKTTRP

COc1cccnc1-c1nc2cc(OC(F)(F)F)ccc2[nH]1 [Al-10-104]
growth inhibition (MTT assay) (lung cancer cell lines): growth inhibition
sedative effects [1]: significant sedative effects that were lethal at high doses
cell growth (MTT assay) (H520 lung cancer cells): inhibited almost as effectively as 1 μM staurosporine
formation of multiacinar structures (MCF10A-5E cells): dramatic increase
percent viability (DAPI negative cells relative to DMSO) (11 leukemia cell lines): significant inhibition of the majority of the cell lines
IC50 [2]: 4.84 µM
proliferation [3]: inhibited proliferation
solubility [4]: > 100 µM
RUNX1-bound CBFβ (co-immunoprecipitation) [5]: reduction in binding
cell growth (MTT assay) [6]: no effect
apoptosis [7]: induced apoptosis
cell death (MLL-AF4 leukemia cells): induced cell death
apoptosis (T-ALL cell lines): induced apoptosis
